Experimental data: patent publication US20040014726A1, “Method for the preparation of a pharmaceutical composition, and its use” (priority 2000, published 2004)

Columns and labels:
[1] = test system: osteoclast formation in mouse bone marrow culture; assay: Mouse bone marrow culture, osteoclast formation (TRAP-positive multinucleated cells); format: cell-based
Method: This culture system is the most used method to study osteoclast differentiation (Takahashi et al. 1988a). Mouse marrow cells can be induced to form active osteoclasts in 6-8 days in the presence of an osteotropic factor, such as 1,25(OH)2D3, parathyroid hormone, interleukin-1 or prostaglandin E2 (Takahashi et al. 1988b, Shinar et al. 1990, Collins and Chambers 1992, Jimi et al. 1999). Typically, 10^6 cells are cultured/ml of media for 6 days. Then, the cells are fixed with 3% paraformaldehyde in PBS and stained for osteoclast marker, such as tartrate-resistant acid phosphatase (TRAP). Sigma's immunohistochemical kit can be used. Multinucleated, TRAP-positive cells containing at least 3 nuclei are counted as osteoclasts (Hentunen et al. 1998).
(§1) The concentration range of the test compound in these assays was 10^−10-10^−5 M.

ovariectomized rats = assay: Tests on ovariectomized rats (pQCT and bone strength); format: in vivo, rat; conditions: 12 weeks
Method: The activity of [[(3-hydroxy-2-pyridyl)amino]methylidene]bisphosphonic acid tetraethylester (TC) has been tested in ovariectornized rats. In the said tests, the compound to be tested was administered to six-month old rats. The control rats were sham-operated or overiectomized and given vehicle. The compound was given to ovariectomized rats orally 7 days a week for 12 weeks beginning immediately after the surgery. The doses were 10, 50 and 100 mg/kg/day. At the end of the study, the mineral density and the geometry of the bone was measured with pQCT (peripheral quantitative computed tomography). The strength of the bone was measured with electromechanical materials testing machine. The sites of measurement were the proximal end of the tibia (not strength), the lumbar vertebra, the femoral neck and the tibial mid-diaphysis. The parameters to be measured were the bone density of the trabecular or cortical bone, the cortical area and strength of the bone.

[2] = test system: osteoclast formation in spleen cell culture; assay: Mouse spleen cell culture, osteoclast formation; format: cell-based
Source text: as §1

[3] = test system: mouse osteoprogenitor cells (preosteoblasts) supporting osteoclast formation; assay: Mouse spleen cell/osteoblast co-culture with pre-treated osteoprogenitor cells; format: cell-based; conditions: osteoprogenitor cells incubated with 10^-5 M for 24 h, then co-culture with spleen cells; data not shown
Source text: Bone marrow stromal cells have long been known as a source of osteoprogenitor cells (Owen and Friedenstein 1988). […] These preosteoblasts can be further induced to form active osteoblasts by continuing the cultures for two more weeks in the presence of estrogen (17β-estradiol). During this culture period cells begin to express increasing levels of osteoblast markers, such as alkaline phosphatase, type I collagen and osteocalcin, and finally they are able to form bone. Bone formation is detected by bone nodule formation and calcium deposition in the cultures (Qu et al. 1998).
A co-culture system was developed, which contains mouse spleen cells and primary mouse osteoprogenitor cells. Osteoprogenitor cells were prepared from mouse marrow as described in section C.
When these two cell types were cultured in the presence of 1,25(OH)2D3, several osteoclasts were formed. Spleen cells alone with 1,25(OH)2D3 were not able to differentiate into osteoclasts. Mouse osteoprogenitor cells, which were able to support osteoclast formation, were incubated first with 10^−5 M of the said test compound for 24 h and then these cells were used in the co-culture with mouse spleen cells. […] This further supports the idea, that the test compound has direct inhibitory effect on osteoclast precursors.

isolated rat osteoclasts = assay: Rat osteoclast culture on bovine bone slices; format: cell-based
Method: Osteoclasts can be isolated from long bones of several species and they are cultured on bone or dentine slices to study their resorption activity (Boyde et al. 1984, Chambers et al 1984). Mostly, either rat or rabbit osteoclasts are used. They are isolated from new-born animals and cultured for 1-2 days. The resorption activity is determined either by counting the number of resorption pits on bone/dentine slices or the total resorption area is measured using a phase contrast microscope and image analysis system. We are routinely using isolated rat osteoclasts and we culture them on bovine bone slices for two days, after which we fix the cells. Cells are stained with toluidine blue and counted under the microscope (Arnett and Dempster 1987, Lakkakorpi et al. 1989). Then the cells are removed by brushing them and the resorption pits are stained with WGA lectin, which binds to resorption lacuna in the bone slice. The number and area of pits are quantified (Selander et al. 1994).
as §1

[4] = test system: bone metastases of human breast cancer cells in the mouse; assay: Metastasis model in mouse (human breast cancer cells, osteolytic bone lesions); format: in vivo; conditions: 50 mg/kg/day s.c. for 10 days
Method: The effect of the test compound has been tested in a metastasis model in the mouse. 14 days after inoculation with human breast cancer cells, when the radiologically detected osteolytic bone lesions were found, the animals were treated either with PBS (control) or the test compound (50 mg/kg/day, s.c.) for 10 days. At the end of the study, osteoclast number and bone area were measured histomorphometrically.

SMILES: CCOP(=O)(OCC)C(Nc1ncccc1O)P(=O)(OCC)OCC [test compound, [[(3-hydroxy-2-pyridinyl)amino]methylidene]bisphosphonic acid tetraethylester]
- inhibition at 1 µM ([1]; Mus musculus, Osteoclast, at 10^-6 M): 60%
- TRAP-positive MNC formation ([1]; at 10^-5 M): inhibit completely
- toxic effect on other cells ([1]; at 10^-5 M): without having toxic effect on other cells
- 1,25(OH)2D3- and PTH-induced osteoclast formation ([1]; bone marrow culture, concentration range 10^-10-10^-5 M): dose dependently inhibited
- change in the cortical area in the femoral neck caused by ovariectomy (ovariectomized rats; 50 mg/kg/day oral): inhibited the change
- strength of the tibial mid-diaphysis (ovariectomized rats; 50 mg/kg/day oral): improved, although not to a significantly meaningful degree
- cortical area in the tibial mid-diaphysis (ovariectomized rats; 50 mg/kg/day oral, compared to a normal rat and an ovariectomized rat): increase of the cortical area
- change in the trabecular density in the femoral neck caused by ovariectomy (ovariectomized rats; 100 mg/kg/day oral): inhibited the change
- area of the cortical bone in the lumbar vertebra, reduction by ovariectomy (ovariectomized rats; 50 and 100 mg/kg/day oral): inhibit these changes
- density of the trabecular bone in the lumbar vertebra, reduction by ovariectomy (ovariectomized rats; 50 and 100 mg/kg/day oral): inhibit these changes
- strength of the cortical bone in the lumbar vertebra, reduction by ovariectomy (ovariectomized rats; 50 and 100 mg/kg/day oral): inhibit these changes
- thickness of the cortical bone (pQCT), reduction caused by ovariectomy (ovariectomized rats; oral, FIG. 5 lower row): can be inhibited
- inhibition at 1 µM ([2]; Mus musculus, Osteoclast, at 10^-6 M concentration): 60%
- TRAP-positive MNC formation ([2]; at 10^-5 M): completely blocked
- osteoclast-like cell formation (TRAP-positive MNC or mononuclear cells) ([2]; at 10^-5 M, data not shown): totally blocked
- inhibition of osteoclast formation ([2]; compound present on days 4-6): approximately 40%
- inhibition of osteoclast formation ([2]; compound present only at days 1-3): more than 60%
- osteoclast formation in spleen cell culture ([2]; concentration range 10^-10-10^-5 M): dose dependently inhibited
- support of osteoclast formation by treated preosteoblasts [3]: supported osteoclast formation in the similar manner as non-treated preosteoblasts
- osteoclast-mediated bone resorption (isolated rat osteoclasts; data not shown): did not have any effect
- osteoclast apoptosis (isolated rat osteoclasts; osteoclasts cultured for 1-2 days on bovine bone slices): did not have any effect
- tumor induced decrease in bone area at the site of metastases [4]: inhibited
- number of osteoclasts at the tumor-bone interface ([4]; compared to PBS control): decreased significantly
